Experiments:
enzymatic activity = settings: cited from earlier work
[1] = tested on: human umbilical arterial smooth muscle cells (HUASMC); assay: ECM / collagen-1 deposition in human umbilical arterial smooth muscle cells; type: cell-based; settings: 0, 25, 50, 100 μM ascorbic acid; p>0.05
Method: Human lung fibroblasts (WI-38; American Tissue Culture Collection), Human skin fibroblasts (WS-1; American Tissue Culture Collection) were routinely cultured in Dulbecco's modified Eagle medium with 10% fetal bovine serum (FBS), 1% penicillin-streptomycin at 37° C. in a humidified atmosphere of 5% CO2. Commercially available Smooth Muscle Growth Medium-2 (CLONETICS® SmGM®-2) and supplements (SmGM-2 SingleQuots) were used for human umbilical arterial smooth muscle cells (HUASMC; CLONETICS® UASMC-Human Umbilical Artery Smooth Muscle Cells; Lonza CC-2579). Cells were seeded at 50,000 cells/well in 24-well plates and were allowed to attach for 24 hours. […] To induce collagen synthesis, fibroblasts were supplemented with 100 μM L-ascorbic acid phosphate. The HUASMC was supplemented with various concentration of ascorbic acid (0 μM, 25 μM, 50 μM and 100 μM). In some of the experiment commercially available human serum (Lonza, Belgium) was also used as supplement in place of FBS. At the end of culture time points, culture media were collected into separate vials, whereas cell layers were washed twice with Hank's balanced salt solution (HBSS). […] Cell layer and Medium samples were analyzed by SDS-PAGE under nonreducing conditions with Mini-Protean 3 (Bio-Rad Laboratories). […] Collagen bands were quantified by defining each band with the rectangular tool with background subtraction.

Compound | effect on enzymatic activity (enzymatic activity) | effect of ascorbic acid on ECM deposition [1]
OC[C@H]1O[C@@](CO)(O[C@H]2O[C@H](CO)[C@@H](O)[C@H](O)[C@H]2O)[C@@H](O)[C@@H]1O [Sucrose] | Ineffective | –
O=C1O[C@H]([C@@H](O)CO)C(O)=C1O [ascorbic acid] | – | did not affected ECM deposition
